Experimental data from patent US7442373B2 (priority 2003, dated 2008).

Columns and labels:
Bacillus anthracis Ames = test system: Bacillus anthracis Ames; design: species or system Swiss-Webster mice; conditions: mouse, in vivo
[1] = test system: Bacillus anthracis spores; design: species or system Hartley guinea pigs; conditions: guinea pig, in vivo

| Molecule | animals protected (Bacillus anthracis Ames) | protection, antibody alone ([1]; ip) | ED50 dose [1] | protection at low dose 1.12 mg/day [1] |
| --- | --- | --- | --- | --- |
| AVP-21D9 | 40% | provided protection and delayed the mean time of death |  |  |
| O=C(O)c1cn(C2CC2)c2cc(N3CCNCC3)c(F)cc2c1=O [ciprofloxacin] |  |  | 3 mg/day | non-protective |
